Laboratory results published in PubChem BioAssay (NCI).
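Values below derive from 48-hour exposures of cells grown in 96-well plates, with endpoints linearly interpolated between the two concentrations bracketing the appropriate inhibition level. The concentration for full growth arrest is given as TGI.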

How the values were obtained:
Assay in all cases: NCI tumour cell line growth inhibition, 48 h
[1] = test system: 786-0 renal
[2] = test system: A498 renal
[3] = test system: A549 NSCLC
[4] = test system: ACHN renal
[5] = test system: CAKI-1 renal
[6] = test system: CCRF-CEM leukemia
[7] = test system: DLD-1 colon
[8] = test system: DMS 114 small cell lung
[9] = test system: DMS 273 small cell lung
[10] = test system: EKVX NSCLC
[11] = test system: HCT-116 colon
[12] = test system: HL-60(TB) leukemia
[13] = test system: HOP-62 NSCLC
[14] = test system: HOP-92 NSCLC
[15] = test system: HT29 colon
[16] = test system: IGROV1 ovarian
[17] = test system: K-562 leukemia
[18] = test system: KM12 colon
[19] = test system: KM20L2 colon
[20] = test system: LXFL 529 NSCLC
[21] = test system: M14 melanoma
[22] = test system: M19-MEL melanoma
[23] = test system: MOLT-4 leukemia
[24] = test system: NCI-H226 lung
[25] = test system: NCI-H23 lung
[26] = test system: NCI-H460 lung
[27] = test system: NCI-H522 lung
[28] = test system: OVCAR-3 ovarian
[29] = test system: OVCAR-4 ovarian
[30] = test system: OVCAR-5 ovarian
[31] = test system: OVCAR-8 ovarian
[32] = test system: RXF 393 renal
[33] = test system: SF-268 CNS
[34] = test system: SF-295 CNS
[35] = test system: SF-539 CNS
[36] = test system: SK-MEL-2 melanoma
[37] = test system: SK-MEL-28 melanoma
[38] = test system: SK-MEL-5 melanoma
[39] = test system: SK-OV-3 ovarian
[40] = test system: SN12C renal
[41] = test system: SNB-19 CNS
[42] = test system: SNB-75 CNS
[43] = test system: SNB-78 CNS
[44] = test system: SR leukemia
[45] = test system: SW-620 colon
[46] = test system: TK-10 renal
[47] = test system: U251 CNS
[48] = test system: UACC-257 melanoma
[49] = test system: UACC-62 melanoma
[50] = test system: UO-31 renal
[51] = test system: XF 498 CNS
[52] = test system: COLO 205 colon
[53] = test system: HCC-2998 colon
[54] = test system: HCT-15 colon
[55] = test system: LOX IMVI melanoma
[56] = test system: MALME-3M melanoma
[57] = test system: RPMI-8226 leukemia

Measured: TGI

O=C1c2cc3c(cc2[C@@H]2NC4CCCC14O2)OCO3 (some centres not stated)
not listed: [52] | [53] | [54] | [55] | [56] | [57]
> 100 µM: all other assays above

CN=C(NC#N)N(Cc1ccccc1)Cc1ccccc1
not listed: [8] | [17] | [32]
> 100 µM: all other assays above

CCOC(=O)Cn1c(=O)n(C)c(=O)c2[nH]cnc21
not listed: [12] | [19] | [24] | [29] | [30] | [32] | [34] | [48] | [53] | [55]
> 100 µM: all other assays above
